# In patent US20130219529A1, “PROBE FOR A HAIR CELL, AND LABELLING METHOD FOR A HAIR CELL USING THE PROBE FOR A HAIR CELL” (CANON KABUSHIKI KAISHA, priority 2008, published 2013):
# What was measured:
# [1] = Excitation and fluorescence emission wavelength measured with fluorescence spectrophotometer; type: physicochemical; details: aqueous solution, 10 mg/mL DMSO solution diluted 500-fold with purified water
# [2] = tested on: hair cell (neuromast) of Zebrafish; test: Staining of hair cell (neuromast) of Zebrafish juveniles with probe, fluorescence stereomicroscope image visually evaluated; type: in vivo; details: dye concentration 250 μg/mL, 1 hour, Zebrafish juveniles Day 7 after fertilization
# [3] = tested on: juvenile neuromast (hair cell) of Zebrafish; test: Change in staining intensity of neuromast due to morpholino knockdown of target genes (SLC25A12, TRPC2); type: in vivo; details: for Ratio of staining intensity (KD/control): juveniles Day 7
# Procedure: In order to knockdown a specific gene, a mixed solution containing a morpholino antisense oligonucleotide (MO) was prepared. MO was synthesized by using GeneTools, LLC (Philomath, Oreg.). A morpholino antisense oligonucleotide (atgMO) designed so that the translation from a start codon to a protein would be inhibited was dissolved in distilled water to prepare a MO mixed solution having the following composition.
# A fertilized embryo within 1 hour after fertilization (before a second cleavage period) of Zebrafish was microinjected with the MO mixed solution. A capillary made of glass (inner diameter: 0.6 mm) having a sharp extremity obtained by extending and cutting a glass tube with a PC-10 puller (manufactured by Narishige Co., Ltd.) and grinding the cross section with a EG-400 grinder (manufactured by Narishige Co., Ltd.) was used for the microinjection. Feeding water and the fertilized embryo were placed into a 10-cm dish in which 1% agarose had been bedded, and the microinjection was performed under a stereoscopic microscope. During injection, one of a manual injector IM-9A (manufactured by Narishige Co., Ltd.) and an electrical microinjector IM-30 (manufactured by Narishige Co., Ltd.) was connected to the capillary made of glass, to thereby perform infusion with pressure. The infusion amount of MO was set to 1 to 10 ng per fertilized embryo.
# Because the MO mixed solution is supplemented with a dye (0.005% phenol red), the success or failure of the infusion of the MO mixed solution may be confirmed with the naked eye. Further, because the MO mixed solution is supplemented with a fluorescent protein expression vector (EGFP), on Day 3 after infusion, the success or failure of the microinjection can be confirmed after the fertilized embryo has hatched (a sample in which a signal derived from the fluorescent protein was observed also retains MO in Zebrafish).
# Juveniles (embryos on Day 7 after fertilization) of Zebrafish were stained in the same manner as that in Example 1, and a change in staining condition of the hair cell was measured.
# The compound (54) was selected as the probe for a hair cell and compared with FM1-43. Further, SLC25A12 and TRPC2 were selected as target genes. The staining intensity of a juvenile neuromast having unknockdown genes was used as a control, and compared with the staining intensity of a juvenile neuromast in which each of the target genes has been knockdown by representing a fluorescence image obtained with a stereoscopic microscope in numerical values.
# [4] = tested on: neuromast (hair cell) of Zebrafish; test: Staining intensity of neuromast at different concentrations of staining agent (fluorescence intensity per unit intake time); type: in vivo; details: 10, 30 and 100 ng/mL staining solutions, intensity/msec
# Procedure: The compounds (43), (54), and (65) were selected as probes for a hair cell, and compared with FM1-43. Three kinds of staining solutions containing those staining agents were prepared at concentrations of 10 ng/mL, 30 ng/mL, and 100 ng/mL. Juveniles of (embryos on Day 7 after fertilization) of Zebrafish were stained in the same manner as that in Example 1. When a fluorescence image is acquired with a fluorescence stereomicroscope, the fluorescence intensity per unit intake time (intensity/msec) was calculated by changing an intake time (exposure time) and dividing the fluorescence intensity (Relative Fluorescence Unit, RFU) of a neuromast of the obtained fluorescence image by the intake time.
# [5] = tested on: hair cell of Zebrafish; details: 5 μM chemical substance, 24 hours exposure, Zebrafish Day 7 after fertilization, stained with staining compound 54
# Procedure: Zebrafish after exposure was washed with distilled water. The same operation as that in Example 1 was performed except that the staining compound (1) used in Example 1 was changed to a staining compound (54).
Compound,Excitation wavelength λex [1],Fluorescence emission wavelength λem [1],Fluorescence intensity [2],Staining intensity of the hair cell compared with FM1-43 (FIG. 4) [4],further results
"CC[n+]1ccccc1C=Cc1ccc(N(C)C)cc1.[I-] [DASPEI, 2-(4-(dimethylamino)styryl)-N-ethylpyridinium iodide, reference compound]",461 nm,589 nm,+,–,–
"CC1(C)C(/C=C/C=C/C=C/C=C2\N(CCCCS(=O)(=O)O)c3ccc4ccccc4c3C2(C)C)=[N+](CCCCS(=O)(=O)[O-])c2ccc3ccccc3c21 [ICG, indocyanine green, reference compound]",784 nm,811 nm,No stained,–,Staining pattern [2]: No stained
CC/N=c1\cc2oc3cc(NCC)c(C)cc3c(-c3ccccc3C(=O)OCC)c-2cc1C [Staining compound 54],–,–,–,higher,Increase of staining properties by knockdown of SLC25A12 and TRPC2 genes ([3]; each of SLC25A12 and TRPC2 knockdown): about 2 fold; Ratio of staining intensity (KD/control) ([3]; target gene SLC25A12 knockdown): 2.06; Ratio of staining intensity (KD/control) ([3]; target gene TRPC2 knockdown): 2.18
CCN1/C(=C\C=C\c2sc3ccccc3[n+]2CC)Sc2ccccc21 [Staining compound 65],–,–,–,higher,–
"NCCS(=O)(=O)O [Taurine, taurine]",–,–,–,–,Change in staining intensity [5]: No change
